In US9371328B2, “Imidazopyridazinecarbonitriles useful as kinase inhibitors” (BRISTOL-MYERS SQUIBB COMPANY, priority 2008, dated 2016):

Key:
[1] = test system: HCT116; test: Cell proliferation inhibition assay (MTT/MTS); format: cell-based; settings: Homo sapiens, HCT-116, Table 1, 72 h with compound
Method: Compounds were evaluated for their ability to inhibit cell proliferation, using an assay that measures mitochondrial metabolic activity, that is directly correlated with cell numbers. Cells were plated at 2000 cells/well in 96-well plates and were cultured for 24 h in RPMI-1640 supplemented with 2% fetal bovine serum, before test compounds were added. Compounds were diluted in culture medium such that the final concentration of dimethyl sulfoxide never exceeded 1%. Following the addition of compounds, the cells were cultured for an additional 72 h before cell viability was determined by measuring the conversion of 3-(4,5-dimethylthiazol-2-yl)-2,5-diphenyltetrazolium bromide (MTT) dye using the CellTiter96 kit (Promega) or by measuring the conversion of [3-(4,5-dimethylthiazol-2-yl)-5-(3-carboxymethoxyphenyl)-2-(4-sulfophenyl)-2H-tetrazolium (MTS) dye using the CELLTITER 96® AQueous (Promega).

[2] = molecular target: T1, CK2A1 (CK2α/β) (Homo sapiens, UniProt P68400); test: CK2 kinase assay, CK2A1 (CK2α/β); format: biochemical; settings: Table 1; read-out: CK2A1 (CK2α/β) (IC50)
T1 construct: made in house
Method: (§1) The effectiveness of compounds of the present invention as inhibitors of protein kinases can be readily tested by assays known to those skilled in the art. For example, in vitro protein kinase assays may be conducted with a relevant purified protein kinase and an appropriate synthetic substrate to determine the inhibitory activity of the compounds. […] Reaction mixtures were incubated at 30° C. for 1 hour, and reaction products were captured by binding to phosphocellulose (P81) filter plates. Incorporation of radioactive phosphate into the peptide substrate was determined by liquid scintillation counting. The potency of compounds in inhibiting CK2 is expressed as IC50, defined as the concentrations of compounds required to inhibit the enzymatic activity by 50%.
(§2) The inhibitory activity of the instant compounds may also be measured by recombinant CK2 holoenzyme kinase assays. The assays were performed in U-bottom 384-well plates. The final assay volume was 30 μl prepared from 15 μl additions of enzyme and substrates (fluoresceinated peptide FL-RRRADDSDDDDD-NH2 and ATP) and test compounds in assay buffer (20 mM HEPES pH 7.4, 10 mM MgCl2, 100 mM NaCl, 0.015% Brij35 and 0.25 mM DTT). The reaction was initiated by the combination of bacterially expressed, CK2 α/β or CK2 α′/β holoenzyme with substrates and test compounds. The reaction was incubated at room temperature for 60 minutes and terminated by adding 30 μl of 35 mM EDTA to each sample. The reaction mixture was analyzed on the Caliper LABCHIP® 3000 (Caliper, Hopkinton, Mass.) by electrophoretic separation of the fluorescent substrate and phosphorylated product. Inhibition data were calculated by comparison to no enzyme control reactions for 100% inhibition and vehicle-only reactions for 0% inhibition. The final concentration of reagents in the CK2 α/β assay was 25 μM ATP, 1.5 μM FL-RRRADDSDDDDD-NH2, […] CK2 α/β holoenzyme, and 1.6% DMSO. The final concentration of reagents in the CK2 α′/β assay was 10 μM ATP, 1.5 μM FL-RRRADDSDDDDD-NH2, 100 pM CK2 α′/β holoenzyme, and 1.6% DMSO. Dose response curves were generated to determine the concentration required inhibiting 50% of kinase activity (IC50). Compounds were dissolved at 10 mM in dimethylsulfoxide (DMSO) and evaluated at eleven concentrations. IC50 values were derived by non-linear regression analysis.

[3] = molecular target: T2, CK2A2 (CK2α′/β) (Homo sapiens, UniProt P19784); test: CK2 kinase assay, CK2A2 (CK2α′/β); format: biochemical; settings: Table 1; read-out: CK2A2 (CK2α′/β) (IC50)
T2 construct: made in house
Method: as §1, §2

T2 sequence (P19784 whole entry, species assumed): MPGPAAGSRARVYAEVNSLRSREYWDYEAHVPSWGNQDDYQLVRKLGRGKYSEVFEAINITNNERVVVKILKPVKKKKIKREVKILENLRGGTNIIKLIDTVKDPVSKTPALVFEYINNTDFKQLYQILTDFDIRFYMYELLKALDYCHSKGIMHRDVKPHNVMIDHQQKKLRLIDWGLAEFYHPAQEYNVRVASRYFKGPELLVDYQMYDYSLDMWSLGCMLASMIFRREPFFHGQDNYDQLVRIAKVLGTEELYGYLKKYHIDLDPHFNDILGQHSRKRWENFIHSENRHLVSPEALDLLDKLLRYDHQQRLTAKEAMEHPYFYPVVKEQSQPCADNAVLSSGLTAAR
T2 sequence (P67870 whole entry partner, species assumed): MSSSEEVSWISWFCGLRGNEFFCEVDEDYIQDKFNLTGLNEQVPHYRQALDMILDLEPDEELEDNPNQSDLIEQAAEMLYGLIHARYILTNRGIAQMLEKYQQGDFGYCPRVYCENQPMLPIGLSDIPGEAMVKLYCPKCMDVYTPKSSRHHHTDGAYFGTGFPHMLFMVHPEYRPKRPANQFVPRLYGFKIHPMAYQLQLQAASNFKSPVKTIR
T1 sequence (P68400 whole entry, species assumed): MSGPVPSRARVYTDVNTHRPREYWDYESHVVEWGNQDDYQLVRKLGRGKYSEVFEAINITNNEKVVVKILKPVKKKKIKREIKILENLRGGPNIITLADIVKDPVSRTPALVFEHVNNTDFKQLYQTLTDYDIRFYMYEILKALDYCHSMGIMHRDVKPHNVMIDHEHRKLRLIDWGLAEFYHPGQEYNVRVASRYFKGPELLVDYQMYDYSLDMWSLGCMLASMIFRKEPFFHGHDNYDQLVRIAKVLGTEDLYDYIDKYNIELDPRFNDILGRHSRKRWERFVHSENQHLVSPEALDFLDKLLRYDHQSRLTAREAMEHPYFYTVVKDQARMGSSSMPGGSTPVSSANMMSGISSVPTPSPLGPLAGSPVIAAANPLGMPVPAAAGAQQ
T1 sequence (P67870 whole entry partner, species assumed): as the sequence (P67870 whole entry partner, species assumed) above

| Compound | IC50 [1] [nM] | IC50 [2] [nM] | IC50 [3] [nM] |
| --- | --- | --- | --- |
| Cc1ccc(Nc2cc(NC3CC3)c3ncc(C#N)n3n2)cc1CC(=O)O [Example 224, (5-((3-Cyano-8-(cyclopropylamino)imidazo [1,2-b]pyridazin-6-yl)amino)-2-methylphenyl) acetic acid] | > 10000 | 794 | 126 |
| N#Cc1cnc2c(NC3CC3)cc(Nc3cc(-n4cncn4)ccc3OC(F)(F)F)nn12 [Example 167, 8-(Cyclopropylamino)-6-((5-(1H-1,2,4-triazol-1-yl)-2-(trifluoromethoxy)phenyl)amino)imidazo[1,2-b]pyridazine-3-carbonitrile] | > 1000 | 103 | 12.5 |
| N#Cc1cnc2c(NC3CC3)cc(Nc3cccc(C(=O)O)c3)nn12 [Example 44, 3-((3-Cyano-8-(cyclopropylamino)imidazo [1,2-b]pyridazin-6-yl)amino) benzoic acid] | > 1000 | 1310 | 35.1 |
| CN1CCN(C(=O)c2ccc(Nc3cc(NC4CC4)c4ncc(C#N)n4n3)cc2N)CC1 [Example 89, 6-((3-Amino-4-((4-methyl-1-piperazinyl)carbonyl)phenyl)amino)-8-(cyclopropylamino)imidazo [1,2-b]pyridazine-3-carbonitrile] | > 1000 | 6670 | 940 |
| CCN(CC)c1ccc(Nc2cc(NC3CC3)c3ncc(C#N)n3n2)cc1 [Example 244, 8-(Cyclopropylamino)-6-((4-(diethylamino)phenyl)amino)imidazo[1,2-b]pyridazine-3-carbonitrile] | 1110 | 102 | 22.8 |

Molecules with a lower IC50 [1], results first:

| IC50 [1] [nM] | IC50 [2] [nM] | IC50 [3] [nM] | Compound |
| --- | --- | --- | --- |
| 48 | 12 | 1 | CC(=O)N1CCc2ccc(Nc3cc(NC4CC4)c4ncc(C#N)n4n3)cc21 [Example 64, 6-((1-Acetyl-2,3-dihydro-1H-indol-6-yl)amino)-8-(cyclopropylamino)imidazo [1,2-b]pyridazine-3-carbonitrile] |
| 327 | 9 | 1.7 | COc1ccc(C#N)cc1Nc1cc(N)c2ncc(C#N)n2n1 [Example 228, 8-Amino-6-((5-cyano-2-methoxyphenyl)amino) imidazo[1,2-b]pyridazine-3-carbonitrile] |
| 128 | 7.1 | 2.3 | Cc1cc(Cl)c(Nc2cc(Nc3ccccn3)c3ncc(C#N)n3n2)cc1C#N [Example 233, 6-((2-Chloro-5-cyano-4-methylphenyl)amino)-8-(2-pyridinylamino)imidazo[1,2-b]pyridazine-3-carbonitrile] |
| 98 | 12.2 | 2.2 | Cc1cc(O)nc2cc(Nc3cc(NC4CC4)c4ncc(C#N)n4n3)ccc12 [Example 58, 8-(Cyclopropylamino)-6-((4-methyl-2-oxo-1,2-dihydro-7-quinolinyl)amino)imidazo[1,2-b]pyridazine-3-carbonitrile] |
| 460 | 417 | 106 | Cn1cnnc1-c1cccc(Nc2cc(NC3CC3)c3ncc(C#N)n3n2)c1 [Example 48, 8-(Cyclopropylamino)-6-((3 - (4-methyl-4H-1,2,4-triazol-3-yl)phenyl)amino) imidazo[1,2-b]pyridazine-3-carbonitrile] |
